From ChEMBL document CHEMBL1143509, “Novel cyclopentane dicarboxamide sodium channel blockers as a potential treatment for chronic pain” (Bioorg Med Chem Lett, 2005) come the findings set out here.

Data set [1] concerns the target T1, Sodium channel protein type 9 subunit alpha (Homo sapiens, UniProt Q15858). In words: In vitro inhibitory concentration against voltage-gated sodium channel Nav1.7 in voltage-ion-probe-reader (VIPR) assay. Type of data set: functional.
The target in data set [2] is T1, Sodium channel protein type 9 subunit alpha. In words: Inhibitory constant against voltage-gated sodium channel Nav1.7 in electrophysiology assays (EP). Type of data set: functional.
The nature of data set [3]: Half life period of the compound was determined in rat. Type of data set: ADME. To be noted: in vivo.
Data set [4] can be described thus: Clearance value of the compound was determined in plasma of rat. Type of data set: ADME, organism-based. To be noted: read-out: Clp.
A short description of data set [5]: Bioavailability in rat. Type of data set: ADME, organism-based. To be noted: in vivo.

SMILES strings stand for the structures.

T1 sequence (Q15858 whole entry): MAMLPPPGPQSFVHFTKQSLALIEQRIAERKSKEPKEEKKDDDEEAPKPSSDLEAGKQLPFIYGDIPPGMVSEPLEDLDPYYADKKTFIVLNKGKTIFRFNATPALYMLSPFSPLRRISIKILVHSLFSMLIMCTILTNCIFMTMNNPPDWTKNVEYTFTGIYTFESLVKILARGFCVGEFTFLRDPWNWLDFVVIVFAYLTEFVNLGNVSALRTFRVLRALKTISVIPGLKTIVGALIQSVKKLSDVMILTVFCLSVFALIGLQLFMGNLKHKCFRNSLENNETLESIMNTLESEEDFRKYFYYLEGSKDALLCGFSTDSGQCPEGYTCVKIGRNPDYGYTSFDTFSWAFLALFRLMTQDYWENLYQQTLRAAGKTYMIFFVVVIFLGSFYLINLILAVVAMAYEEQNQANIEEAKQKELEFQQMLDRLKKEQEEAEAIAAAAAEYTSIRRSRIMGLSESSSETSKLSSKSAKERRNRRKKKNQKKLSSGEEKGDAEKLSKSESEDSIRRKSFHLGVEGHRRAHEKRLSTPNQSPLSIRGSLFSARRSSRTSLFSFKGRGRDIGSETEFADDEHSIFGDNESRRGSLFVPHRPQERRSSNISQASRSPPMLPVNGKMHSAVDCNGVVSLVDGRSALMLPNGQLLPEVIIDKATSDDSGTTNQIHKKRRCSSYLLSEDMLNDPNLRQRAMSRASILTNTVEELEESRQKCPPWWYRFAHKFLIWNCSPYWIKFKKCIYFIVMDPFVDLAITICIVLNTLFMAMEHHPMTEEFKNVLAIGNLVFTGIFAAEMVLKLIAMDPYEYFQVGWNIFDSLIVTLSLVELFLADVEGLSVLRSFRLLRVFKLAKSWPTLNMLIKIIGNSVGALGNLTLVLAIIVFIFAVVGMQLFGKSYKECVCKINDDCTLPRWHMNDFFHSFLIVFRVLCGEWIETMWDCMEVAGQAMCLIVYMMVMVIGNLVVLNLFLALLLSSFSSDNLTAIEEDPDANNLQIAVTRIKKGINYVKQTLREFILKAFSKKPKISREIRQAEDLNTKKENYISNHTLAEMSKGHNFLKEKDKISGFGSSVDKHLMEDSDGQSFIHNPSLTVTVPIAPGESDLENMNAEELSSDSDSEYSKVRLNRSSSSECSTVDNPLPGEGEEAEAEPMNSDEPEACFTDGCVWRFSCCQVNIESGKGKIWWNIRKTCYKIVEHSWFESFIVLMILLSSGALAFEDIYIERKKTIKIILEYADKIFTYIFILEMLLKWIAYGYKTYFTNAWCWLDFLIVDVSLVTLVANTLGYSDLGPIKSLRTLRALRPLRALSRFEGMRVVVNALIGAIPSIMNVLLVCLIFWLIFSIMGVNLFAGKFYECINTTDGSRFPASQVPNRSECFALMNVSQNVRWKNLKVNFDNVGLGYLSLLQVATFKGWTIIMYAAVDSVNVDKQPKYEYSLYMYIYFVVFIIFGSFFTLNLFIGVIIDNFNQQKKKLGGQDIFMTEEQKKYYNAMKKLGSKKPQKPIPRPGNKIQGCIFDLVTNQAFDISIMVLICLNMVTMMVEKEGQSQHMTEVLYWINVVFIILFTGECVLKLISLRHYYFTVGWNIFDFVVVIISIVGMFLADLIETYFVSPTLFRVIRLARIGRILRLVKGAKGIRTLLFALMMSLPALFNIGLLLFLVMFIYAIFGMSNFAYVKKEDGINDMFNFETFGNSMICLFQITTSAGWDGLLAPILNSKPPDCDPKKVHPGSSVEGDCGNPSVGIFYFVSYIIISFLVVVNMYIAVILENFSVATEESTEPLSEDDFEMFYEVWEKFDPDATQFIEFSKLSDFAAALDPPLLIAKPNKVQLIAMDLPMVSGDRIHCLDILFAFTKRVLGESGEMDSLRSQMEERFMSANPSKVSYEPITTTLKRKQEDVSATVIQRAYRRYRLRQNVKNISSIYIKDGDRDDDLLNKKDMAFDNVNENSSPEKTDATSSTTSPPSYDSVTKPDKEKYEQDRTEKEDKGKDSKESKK

For orientation: IC50 means the midpoint of a concentration-inhibition curve. A lower IC50 goes with inhibition by little substance. The term Ki denotes the equilibrium dissociation constant of an inhibitor or competing ligand from its target. The low end stands for a stronger hold on the target, the high end for a looser hold on the target. For `NS(=O)(=O)c1ccccc1-c1ccc(CNC(=O)/C=C\C(=O)NCc2ccc(-c3cccs3)s2)cc1`, the IC50 in data set [1] worked out at 520 nM. For the same compound, in data set [2], the Ki is 410 nM.

For orientation: half-life means the time in which the quantity being followed falls by half. As usually defined, the bioavailability is the share of a dose that reaches the circulation, judged against a reference dose that is usually intravenous. A high value points to good availability. Turning to `CN(Cc1ccc(-c2ccccc2S(N)(=O)=O)cc1)C(=O)CCC(=O)NCc1cccc(OC(F)(F)F)c1`, in data set [3], the half-life was 30 min. Moreover, the clearance in data set [4] came to 141 mL/min/kg. The bioavailability in data set [5] was 27%.

Regarding `CC(C(=O)NCc1ccc(-c2ccccc2S(N)(=O)=O)cc1)C(C)C(=O)NCc1ccc(-c2cccs2)s1` (stereo not drawn), the IC50 in data set [1] was found to be 1400 nM.

In data set [1], `NS(=O)(=O)c1ccccc1-c1ccc(CNC(=O)c2cccc(C(=O)NCc3ccc(-c4cccs4)s3)c2)cc1` displayed an IC50 of 2900 nM. The compound also had a Ki in data set [2] of 6200 nM.

For `NS(=O)(=O)c1ccccc1-c1ccc(CNC(=O)CC(=O)NCc2ccc(-c3cccs3)s2)cc1`, the midpoint of inhibition in data set [1], the IC50, lay at 860 nM.

In turn, `NS(=O)(=O)c1ccccc1-c1ccc(CNC(=O)CCCC(=O)NCc2ccc(-c3cccs3)s2)cc1` returned an IC50 in data set [1] of 3200 nM.

`NS(=O)(=O)c1ccccc1-c1ccc(CNC(=O)c2ccccc2C(=O)NCc2ccc(-c3cccs3)s2)cc1`: the IC50 in data set [1] worked out at 2200 nM. Moreover, the Ki in data set [2] stood at 140 nM.

Take `NS(=O)(=O)c1ccccc1-c1ccc(CNC(=O)CCC(=O)NCc2ccc(-c3cccs3)s2)cc1`: the half-life in data set [3] is 30 min. In addition, the IC50 in data set [1] turned out to be 150 nM. The compound also had a Ki in data set [2] of 150 nM. For the same compound, the clearance in data set [4] worked out at 68 mL/min/kg. Further, in data set [5], the bioavailability was 1.9%.

`CC(C)(CC(=O)NCc1ccc(-c2ccccc2S(N)(=O)=O)cc1)C(=O)NCc1ccc(-c2cccs2)s1` showed an IC50 in data set [1] of 2300 nM.

`CC(NC(=O)[C@H]1CCC[C@@H]1C(=O)NCc1ccc(-c2ccccc2S(N)(=O)=O)cc1)c1ccc(-c2cccs2)s1` (mixture of isomers): the midpoint of inhibition in data set [1], the IC50, lay at 10000 nM.

`CC(NC(=O)[C@H]1CCC[C@@H]1C(=O)NCc1ccc(-c2cccs2)s1)c1ccc(-c2ccccc2S(N)(=O)=O)cc1` (mixture of isomers) displayed an IC50 in data set [1] of 1400 nM. This compound also showed a Ki in data set [2] of 50 nM.

Consider `CC(NC(=O)[C@H]1CCC[C@@H]1C(=O)N(C)Cc1ccc(-c2ccccc2S(N)(=O)=O)cc1)c1ccc(-c2cccs2)s1` (mixture of isomers), for which, in data set [1], the IC50 amounted to 10000 nM.

Consider `CN(Cc1ccc(-c2cccs2)s1)C(=O)[C@H]1CCC[C@@H]1C(=O)NCc1ccc(-c2ccccc2S(N)(=O)=O)cc1` (racemic), for which the IC50 in data set [1] came to 5300 nM.

Take `CN(Cc1ccc(-c2ccccc2S(N)(=O)=O)cc1)C(=O)[C@H]1CCC[C@@H]1C(=O)NCc1ccc(C(F)(F)F)cc1` (racemic): the IC50 in data set [1] was 2500 nM. Besides, in data set [2], affinity was put at a Ki of 280 nM.

Turning to `CN(Cc1ccc(-c2ccccc2S(N)(=O)=O)cc1)C(=O)[C@H]1CCC[C@@H]1C(=O)N(C)Cc1ccc(-c2cccs2)s1` (racemic), in data set [1], the IC50 is more than 10000 nM.

Consider `NS(=O)(=O)c1ccccc1-c1ccc(CNC(=O)[C@H]2CCC[C@@H]2C(=O)NCc2ccc(-c3cccs3)s2)cc1` (racemic), for which, in data set [3], the half-life is 18 min. For the same compound, inhibition in data set [1] was half-maximal at 370 nM (IC50). In data set [2], this compound yielded a Ki of 60 nM. The clearance in data set [4] was found to be 39 mL/min/kg. Further, the bioavailability in data set [5] was 1.2%.

The compound `NS(=O)(=O)c1ccccc1-c1ccc(CNC(=O)[C@H]2CCC[C@@H]2C(=O)NCc2ccccc2)cc1` (racemic) yielded an IC50 in data set [1] of 5000 nM.

As for `NS(=O)(=O)c1ccccc1-c1ccc(CNC(=O)[C@H]2CCC[C@@H]2C(=O)NCc2cccc(OC(F)(F)F)c2)cc1` (racemic), in data set [1], the IC50 is 1100 nM.

Regarding `CN(Cc1ccc(-c2ccccc2S(N)(=O)=O)cc1)C(=O)[C@H]1CCC[C@@H]1C(=O)NCc1ccccc1` (racemic), in data set [1], the IC50 is more than 10000 nM.

With `NS(=O)(=O)c1ccccc1-c1ccc(CNC(=O)[C@H]2CC[C@@H]2C(=O)NCc2ccc(-c3cccs3)s2)cc1` (racemic), half-maximal inhibition in data set [1] (IC50) was put at 210 nM.

In data set [1], `NS(=O)(=O)c1ccccc1-c1ccc(CNC(=O)[C@H]2CCC[C@@H]2C(=O)NCc2ccc(-c3ccccc3C(F)(F)F)cc2)cc1` (racemic) came in with an IC50 of 370 nM. Further, the affinity in data set [2] corresponds to a Ki of 510 nM.

In data set [1], `NS(=O)(=O)c1ccccc1-c1ccc(CNC(=O)[C@H]2CCC[C@@H]2C(=O)NCc2ccc(OC(F)(F)F)cc2)cc1` (racemic) returned an IC50 of 300 nM. Besides, the affinity in data set [2], expressed as Ki, was 360 nM.

In data set [1], `COc1ccccc1-c1ccc(CNC(=O)[C@H]2CCC[C@@H]2C(=O)NCc2ccc(-c3ccccc3S(N)(=O)=O)cc2)cc1` (racemic) had an IC50 of 660 nM. In data set [2], this compound had a Ki of 690 nM.

Regarding `Cc1ccccc1-c1ccc(CNC(=O)[C@H]2CCC[C@@H]2C(=O)NCc2ccc(-c3ccccc3S(N)(=O)=O)cc2)cc1` (racemic), in data set [1], the IC50 turned out to be 2100 nM. Affinity in data set [2] was put at a Ki of 370 nM.

The compound `CN(Cc1ccc(-c2ccccc2S(N)(=O)=O)cc1)C(=O)[C@H]1CCC[C@@H]1C(=O)NCc1cccc(OC(F)(F)F)c1` (racemic) came in with a half-maximal inhibitory concentration (IC50) in data set [1] of 1300 nM. The Ki in data set [2] was 530 nM.

Regarding `C=C1[C@H](C(=O)NCc2ccc(-c3ccccc3S(N)(=O)=O)cc2)[C@H]1C(=O)NCc1ccc(-c2cccs2)s1` (racemic), in data set [1], the IC50 worked out at 840 nM. Besides, in data set [2], the affinity, expressed as Ki, was 5700 nM.

`COc1ccc(CNC(=O)[C@H]2CCC[C@@H]2C(=O)NCc2ccc(-c3ccccc3S(N)(=O)=O)cc2)cc1` (racemic) had an IC50 in data set [1] of 5000 nM. For the same compound, the inhibitory constant (Ki) in data set [2] worked out at 12000 nM.

Consider `NS(=O)(=O)c1ccccc1-c1ccc(CNC(=O)[C@H]2CCC[C@@H]2C(=O)NCc2ccc([N+](=O)[O-])cc2)cc1` (racemic), for which, in data set [1], the IC50 is 2800 nM. The compound also showed a Ki in data set [2] of 2000 nM.

Consider `NS(=O)(=O)c1ccccc1-c1ccc(CNC(=O)[C@H]2CCCC[C@@H]2C(=O)NCc2ccc(-c3cccs3)s2)cc1` (racemic), for which the IC50 in data set [1] was 1400 nM. For the same compound, in data set [2], the inhibitory constant (Ki) was determined as 2100 nM.

Consider `CN(Cc1ccc(-c2ccccc2S(N)(=O)=O)cc1)C(=O)[C@H]1CCC[C@@H]1C(=O)NCc1ccc(-c2cccs2)s1` (racemic), for which the half-life in data set [3] is 72 min. The IC50 in data set [1] was determined as 760 nM. For the same compound, the clearance in data set [4] was determined as 13 mL/min/kg. For the same compound, the bioavailability in data set [5] is 3.3%.

For the compound `CN(Cc1ccc(-c2ccccc2S(N)(=O)=O)cc1)C(=O)[C@H]1CCC[C@@H]1C(=O)NCc1ccc(OC(F)(F)F)cc1` (racemic), the half-life in data set [3] was 58.8 min. In addition, the IC50 in data set [1] came to 830 nM. Further, the Ki in data set [2] was found to be 210 nM. Also, the clearance in data set [4] is 14 mL/min/kg. In data set [5], this compound gave a bioavailability of 44%.

In data set [1], `NS(=O)(=O)c1ccccc1-c1ccc(CNC(=O)[C@H]2CCC[C@@H]2C(=O)NCc2ccc(-c3ccccc3)cc2)cc1` (racemic) returned an IC50 of 660 nM. Further, in data set [2], affinity was put at a Ki of 30 nM.

Compound `NS(=O)(=O)c1ccccc1-c1ccc(CNC(=O)[C@H]2CCC[C@H]2C(=O)NCc2ccc(-c3cccs3)s2)cc1` (racemic) came in with an IC50 in data set [1] of 1600 nM. Further, the affinity in data set [2] corresponds to a Ki of 670 nM.

The compound `COc1ccc(CNC(=O)[C@H]2CCC[C@@H]2C(=O)N(C)Cc2ccc(-c3ccccc3S(N)(=O)=O)cc2)cc1` (racemic) gave an IC50 in data set [1] of 10000 nM. Besides, in data set [2], the affinity, expressed as Ki, was 2100 nM.
